Test results taken from publication PMC4205289, “Triptolide inhibits human immunodeficiency virus type 1 replication by promoting proteasomal degradation of Tat protein” (Retrovirology, 2014).

Legend:
[1] = test system: HIV-1 molecular clone pNL4-3.Luc.R-E-; assay: Transient gene expression assay, pNL4-3.Luc.R-E- transfected into Jurkat cells; assay type: cell-based; settings: 24 h, 118-D-24 50 μM, flavopiridol 20 nM, triptolide 0.2 ~ 5 nM
Experimental: Figure 3 Triptolide inhibits HIV-1 transcription. (A) Time-of-addition analysis. TZM-bl cells were infected with HIV-1 (MOI = 0.5, strain NL4-3), and the virus inoculum was removed after 1 h of absorption. Test compounds (dextran sulfate at 10 μg/mL, zidovudine at 1 μM and triptolide at 5 nM) were added at the indicated time points after infection. Reporter signal was monitored at 48 h post-infection as a measure of viral replication. (B) The effect of triptolide on HIV-1 proviral DNA formation. Jurkat cells were infected with HIV-1 (MOI = 0.5, strain NL4-3) in the presence of the test compounds (INI 118-D-24, 50 μM; flavopiridol, 20 nM; and triptolide, 5 nM). Proviral DNA synthesis was determined by nested PCR analysis at 12 h post-infection. (C) The effect of triptolide on HIV-1 mRNA synthesis. Jurkat cells were infected with HIV-1(MOI = 0.5, strain NL4-3) in the presence of the test compounds (INI 118-D-24, 50 μM; flavopiridol, 20 nM; triptolide, 5 nM). Viral mRNA (the Gag region) content was determined by reverse-transcription PCR analysis 12 h post-infection. (D) Inhibition of luciferase expression encoded in pNL4-3.Luc.R-E- by tiptolide. […]
To further confirm that triptolide interferes with HIV-1 transcription, a transient gene expression assay was performed. […] At 24 h after transfection, viral gene transcription (indicated by luciferase activity) was determined. […]

HIV-1 NL4-3 = assay: microbe, parasite or virus in culture; assay type: cell-based
Experimental: The anti-HIV-1 activities of compounds were evaluated in a variety of assays, including the TZM-bl assay, reporter virus assay, and PBMCs-based antiviral assay. In the TZM-bl assay, TZM-bl cells were plated at a density of 1 × 10^4 cells per well in 96-well tissue culture plates one day before infection. On the day of the experiment, the cell supernatant was removed, and 100 μL of each serially diluted compounds was added were added. HIV-1 NL4-3 in 50 μL of complete medium was then added to each well to achieve a multiplicity of infection (MOI) of 0.5. At 48 h post-infection, the luciferase activity in the cells was analyzed with the SteadyGlo reagent (Promega) according to manufacturer’s instructions. The luminescent signal was measured using the EnVison 2102 Multilabel Reader (Perkin Elmer).

CDK9 = assay: Western blot of endogenous protein in HeLa cells; assay type: cell-based; settings: in the presence of triptolide, Western blotting
Experimental: (§1) (A) HeLa cells were transfected with pEF1-FLAG-Tat in the presence of increasing concentrations of triptolide. Cells were harvested 48 h post-transfection, and protein expression levels were determined by Western blotting. (B) HeLa cells were transfected either with pEF1-GFP (left) or pEF1-Tat-GFP (right) in the presence of increasing concentrations of triptolide. Cells were harvested 48 h post-transfection, and protein expression levels were determined by Western blotting.
(§2) Cells were washed with phosphate buffered saline (PBS) and lysed with radio immunoprecipitation assay lysis buffer supplemented with complete mini protease inhibitor cocktail (Roche) at 4°C for 1 h. Proteins from cell lysates were separated by SDS-PAGE and transferred to polyvinylidene difluoride membranes. After overnight incubation with primary antibodies at 4°C, each blot was probed with horseradish peroxidase-conjugated secondary antibody. Immunoreactive signals were detected with an enhanced chemiluminescence substrate (Thermo Scientific) using an AlphaEaseH FC Imaging System (Alpha Innotech Corporation).

cyclin T1 = assay: Western blot of endogenous protein in HeLa cells; assay type: cell-based; settings: in the presence of triptolide, Western blotting
Experimental: as §1, §2

TZM-bl cells = assay: Cytotoxicity, CellTiter-Glo; assay type: cell-based; settings: TZM-bl, all tested concentrations, in parallel with antiviral assay
Experimental: (§3) The cytotoxicity of the tested compounds was evaluated in parallel with their antiviral assays using the CellTiter-Glo reagent (Promega) according to the manufacturer’s protocol. The 50% cytotoxic concentrations (CC50s) is the compound concentration that reduced cell viability by 50%.

[2] = Cytotoxicity, CellTiter-Glo; assay type: cell-based; settings: human; for CC50 at 6 days: PBMCs, mock-infected cell viability
Experimental: as §3

PBMCs = assay: Cytotoxicity, CellTiter-Glo; assay type: cell-based
Experimental: as §3

Tat protein [3] = assay: Western blot of Tat steady-state level in transfected HeLa cells; assay type: cell-based, HIV-1 NL4-3
Experimental: as §1, §2

Tat protein [4] = test system: T1, Tat protein; assay: as above; assay type: cell-based, HIV-1 NL4-3
T1 construct: expressed in transfected cells; host or cells: HeLa
Experimental: as §1, §2

[5] = test system: Tat-induced HIV-1 LTR activation; assay: HIV-1 LTR-luciferase reporter assay, Tat-induced, Jurkat cells; assay type: cell-based; settings: 48 h
Experimental: Jurkat cells were seeded in 24-well plates at a density of 2 × 10^5 cells per well. For TNF-α induction, cells were co-transfected with pLTR-Luc and pRL-TK in the presence or absence of the test compounds. Then, the cells were treated with 10 ng/mL TNF-α 36 h post-transfection. After induction for an additional 12 h, luciferase activity was analyzed. For Tat-induced LTR activation, Jurkat cells were co-transfected with pLTR-Luc (or pLTR-Luc-ΔkB), pEF1-Tat and pRL-TK, and cultured in the presence of various concentrations of test compounds for an additional 48 h before the determination of luciferase activity. Luciferase levels were expressed relative to levels in cells without induction.

CC(C)[C@]12O[C@H]1[C@@H]1O[C@]13[C@]1(O[C@H]1C[C@H]1C4=C(CC[C@@]13C)C(=O)OC4)[C@@H]2O [triptolide]
effect on luciferase expression from transfected pNL4-3.Luc.R-E- [1]: inhibited reporter expression in a dose-dependent manner
EC50 (HIV-1 NL4-3; Human immunodeficiency virus 1, NL43, HIV-1 NL4-3, TZM-bl, luciferase, MOI 0.5, 48 h post-infection): 0.32 nM
reduction of luciferase expression (HIV-1 NL4-3; at 5 nM, TZM-bl, HIV-1 NL4-3): 97.9%
selectivity ratio at 48 h (HIV-1 NL4-3; human, HIV-1 NL4-3, TZM-bl, read-out: SI (selective index, CC50/EC50)): 79.4
expression level of endogenous CDK9 (CDK9): remained unchanged
expression level of endogenous cyclin T1 (cyclin T1): remained unchanged
toxicity in cell viability assay (TZM-bl cells): no obvious toxicity
CC50 ([2]; Jurkat cells, mock-infected Jurkat cell viability): 13.9 nM
CC50 at 6 days ([2]; PBMC donor A): 12.6 nM
CC50 at 6 days ([2]; PBMC donor B): 15.3 nM
CC50 at 6 days ([2]; PBMC donor C): 11.2 nM
CC50 ([2]; TZM-bl cells, mock-infected TZM-bl cell viability): 25.4 nM
maximum non-toxic concentration (PBMCs): 4 nM
effect on steady-state level of Tat mutants with deletion of acidic, cysteine or core region (Tat protein [3]; FLAG-tagged deletion mutants, 48 h): completely aborted the activity of triptolide
steady level of FLAG-Tat-NES (Tat protein [3]; NES from HIV-1 Rev fused to C-terminus of Tat): remained unchanged
FLAG-Tat-SFV expression (Tat protein [3]; basic domain replaced with NLS from SFV capsid): dose-dependently reduced
action on nuclear versus cytoplasmic Tat Δ49–57 (Tat protein [4]; 5 nM triptolide, nuclear/cytoplasmic fractionation, 48 h): only acted on Tat protein accumulated in nucleus
effect on Tat mutant with deletion of basic region (Tat protein [4]; FLAG-Tat Δ49–57, 48 h): partially attenuated
steady-state level of Tat protein (Tat protein [4]; pEF1-FLAG-Tat, 48 h post-transfection, Western blotting): reduced by triptolide in a dose-dependent manner
effect on Tat-induced gene expression (pLTR-Luc) ([5]; co-transfection with pEF1-Tat): inhibitory effect
effect on Tat-mediated LTR activation, LTR with two mutated NF-κB binding sites ([5]; pLTRΔκB-Luc): reduced the Tat-mediated LTR activation
